Legend:
EP4R [1] = molecular target: T1, EP4R (Homo sapiens, UniProt P35408); assay: biochemical; format: binding; settings: […], read-out: % displacement of 3HPGE2 at 10 µM, 10 µM compound vs 10 nM 3H-PGE2
T1 construct: Tango fusion cassette (only 'tango' is printed); expressed in transfected cells; host or cells: HTLA cells (tTA-dependent luciferase reporter, β-arrestin2-TEV fusion)

EP4R [2] = molecular target: T1, EP4R; assay: PRESTO-Tango β-arrestin2 recruitment assay; format: cell-based; settings: for Ki: PRESTO-Tango Ki* (nM)
[3] = PRESTO-Tango -logIC50, antagonist mode, EC80 of PGE2
[4] = PRESTO-Tango IC50 (nM), antagonist mode, EC80 of PGE2
[5] = calculated using the Cheng Prusoff equation

T1 sequence (P35408 whole entry, the tested form may be a part): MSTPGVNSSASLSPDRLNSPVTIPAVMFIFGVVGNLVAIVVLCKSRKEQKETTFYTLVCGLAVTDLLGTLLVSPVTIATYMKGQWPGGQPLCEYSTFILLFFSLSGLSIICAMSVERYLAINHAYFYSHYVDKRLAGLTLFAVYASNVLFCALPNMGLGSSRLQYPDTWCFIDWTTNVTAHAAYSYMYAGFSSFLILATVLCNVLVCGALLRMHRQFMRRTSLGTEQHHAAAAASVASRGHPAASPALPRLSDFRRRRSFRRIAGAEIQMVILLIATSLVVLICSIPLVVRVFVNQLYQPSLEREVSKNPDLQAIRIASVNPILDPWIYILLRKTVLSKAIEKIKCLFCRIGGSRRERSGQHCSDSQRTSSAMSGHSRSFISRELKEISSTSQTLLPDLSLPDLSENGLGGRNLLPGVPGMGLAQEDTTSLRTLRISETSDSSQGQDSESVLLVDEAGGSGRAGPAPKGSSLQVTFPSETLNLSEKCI

O=C(O)C1(n2cc(Cc3ccc(F)cc3F)cn2)CCC(c2ccccc2)CC1 (stereo not shown) [Compound 1, OC(=O)C1(CCC(CC1)C=2C=CC=CC2)N3C=C(CC=4C=CC(F)=CC4F)C=N3]
inhibition at 10 µM (EP4R [1]): -28.7%

CCc1ncc(CN(CC(=O)O)C(=O)OCc2cccnc2)s1 [Compound 2, CCC1=NC=C(CN(CC(=O)O)C(=O)OCC=2C=CC=NC2)S1]
inhibition at 10 µM (EP4R [1]): -23.1%

CC1CC(C(=O)O)CN(C(=O)C2(c3cccc(C(F)(F)F)c3)CC2)C1 (stereo not shown) [Compound 3, CC1CC(CN(C1)C(=O)C2(CC2)C=3C=CC=C(C3)C(F)(F)F)C(=O)O]
inhibition at 10 µM (EP4R [1]): -22.5%

O=C(NC1CC(C(=O)O)C1)N[C@@H]1CCC[C@@H]1n1cccn1 (stereo partly shown) [Compound 4, OC(=O)C1CC(C1)NC(=O)N[C@@H]2CCC[C@@H]2N3C=CC=N3]
inhibition at 10 µM (EP4R [1]): -21.9%

O=C(O)CCc1cccc(NC(=O)c2c(C(F)(F)F)nc3n2CCCC3)c1 [Compound 5, OC(=O)CCC=1C=CC=C(NC(=O)C2=C(N=C3CCCCN23)C(F)(F)F)C1]
inhibition at 10 µM (EP4R [1]): -19%

NC(=O)c1cc(C(=O)Nc2ccc(CC(=O)O)cc2)nn1-c1ccccc1 [Compound 6, NC(=O)C1=CC(=NN1C=2C=CC=CC2)C(=O)NC=3C=CC(CC(=O)O)=CC3]
inhibition at 10 µM (EP4R [1]): -18.8%

CC1(COC(=O)c2ccc(NS(C)(=O)=O)nc2)CC1(F)Cl (stereo not shown) [Compound 7, CC1(COC(=O)C=2C=CC(NS(=O)(=O)C)=NC2)CC1(F)Cl]
inhibition at 10 µM (EP4R [1]): -18.4%

CN(c1nc2cccc(F)c2s1)[C@H]1C[C@@H](C(=O)O)C1 [Compound 8, CN([C@H]1C[C@H](C1)C(=O)O)C2=NC=3C=CC=C(F)C3S2]
inhibition at 10 µM (EP4R [1]): -18.4%

CC(CN(C)c1nc(C(F)(F)F)cs1)C(=O)O (stereo not shown) [Compound 9, CC(CN(C)C1=NC(=CS1)C(F)(F)F)C(=O)O]
inhibition at 10 µM (EP4R [1]): -18.1%

COc1ccc(Cl)cc1C(Nc1ncc(C(=O)O)s1)c1ccccc1 (stereo not shown) [Compound 10, COC=1C=CC(Cl)=CC1C(NC2=NC=C(S2)C(=O)O)C=3C=CC=CC3]
inhibition at 10 µM (EP4R [1]): -17.8%

Cc1ccc(-n2c(SCc3nnn[nH]3)nc3ccccc3c2=O)cc1 [Compound 11, CC=1C=CC(=CC1)N2C(SCC3=NN=NN3)=NC=4C=CC=CC4C2=O]
inhibition at 10 µM (EP4R [1]): -17.6%

O=C(O)c1c[nH]c2c(Cl)cc(-c3ccc4ccccc4c3F)cc2c1=O [Compound 12, OC(=O)C1=CNC=2C(Cl)=CC(=CC2C1=O)C=3C=CC=4C=CC=CC4C3F]
inhibition at 10 µM (EP4R [1]): -17.1%

O=C(NCc1cc(Cl)cc2c1OCC2)c1cc2sc(C(=O)O)cc2[nH]1 [Compound 13, OC(=O)C1=CC=2NC(=CC2S1)C(=O)NCC=3C=C(Cl)C=C4CCOC43]
inhibition at 10 µM (EP4R [1]): -16.5%

CC1(C(=O)O)CCN(C(=O)C(O)c2ccc(Cl)c(Br)c2)C1 (stereo not shown) [Compound 14, CC1(CCN(C1)C(=O)C(O)C=2C=CC(Cl)=C(Br)C2)C(=O)O]
inhibition at 10 µM (EP4R [1]): -14.7%

O=C(O)CCC(Cc1ccccc1)NS(=O)(=O)c1csc2ccccc12 (stereo not shown) [Compound 15, OC(=O)CCC(CC=1C=CC=CC1)NS(=O)(=O)C2=CSC=3C=CC=CC23]
inhibition at 10 µM (EP4R [1]): -14.5%

CN(Cc1nccn1C1CC1)c1ncnc2[nH]c(C(=O)O)cc12 [Compound 16, CN(CC1=NC=CN1C2CC2)C=3N=CN=C4NC(=CC34)C(=O)O]
inhibition at 10 µM (EP4R [1]): -14.5%

CC(CN(C(=O)c1ccn(-c2ccccc2)n1)C1CC1)C(=O)O (stereo not shown) [Compound 17, CC(CN(C1CC1)C(=O)C=2C=CN(N2)C=3C=CC=CC3)C(=O)O]
inhibition at 10 µM (EP4R [1]): -14%

O=C(O)CC[C@H]1C[C@@H](NC(=O)C(O)c2ccc(Cl)cc2Cl)C1 (stereo partly shown) [Compound 18, OC(C(=O)N[C@H]1C[C@@H](CCC(=O)O)C1)C=2C=CC(Cl)=CC2Cl]
inhibition at 10 µM (EP4R [1]): -13.7%

CC(CN(C(=O)CCc1ccc2ccccc2c1)C1CC1)C(=O)O (stereo not shown) [Compound 19, CC(CN(C1CC1)C(=O)CCC=2C=CC=3C=CC=CC3C2)C(=O)O]
inhibition at 10 µM (EP4R [1]): -13.2%

c1ccc(-c2nc(SCc3nnn[nH]3)oc2-c2ccccc2)cc1 [Compound 20, C(SC1=NC(=C(O1)C=2C=CC=CC2)C=3C=CC=CC3)C4=NN=NN4]
inhibition at 10 µM (EP4R [1]): -12.7%

O=C(O)CCN(Cc1ccccc1)C(=O)CC1(C(F)(F)F)CC1 [Compound 21, OC(=O)CCN(CC=1C=CC=CC1)C(=O)CC2(CC2)C(F)(F)F]
inhibition at 10 µM (EP4R [1]): -12.3%

COc1ccc(-c2cc(CS(=O)(=O)c3nnc(C)[nH]3)on2)cc1 [Compound 22, COC=1C=CC(=CC1)C=2C=C(CS(=O)(=O)C3=NN=C(C)N3)ON2]
inhibition at 10 µM (EP4R [1]): -11.6%

CN(c1cccc(CC(=O)O)c1)S(=O)(=O)CC1Cc2ccccc2C1 [Compound 23, CN(C=1C=CC=C(CC(=O)O)C1)S(=O)(=O)CC2CC=3C=CC=CC3C2]
inhibition at 10 µM (EP4R [1]): -11.1%

CC(CN(C(=O)c1cc2c(C(F)F)nn(C)c2s1)C1CC1)C(=O)O (stereo not shown) [Compound 24, CC(CN(C1CC1)C(=O)C2=CC=3C(=NN(C)C3S2)C(F)F)C(=O)O]
inhibition at 10 µM (EP4R [1]): -10.7%

COC(C(=O)N(C1CC1)C(C)C(=O)O)c1cnn(C)c1 (stereo not shown) [Compound 25, COC(C(=O)N(C(C)C(=O)O)C1CC1)C=2C=NN(C)C2]
inhibition at 10 µM (EP4R [1]): -10.6%

O=C(O)c1cc2c(s1)CCCN(C(=O)C1CC13CCc1ccccc13)C2 (stereo not shown) [Compound 26, OC(=O)C1=CC=2CN(CCCC2S1)C(=O)C3CC43CCC=5C=CC=CC54]
inhibition at 10 µM (EP4R [1]): -10.6%

O=C(O)c1cc(NS(=O)(=O)c2cnc3ccsc3c2)ccc1O [Compound 27, OC(=O)C=1C=C(NS(=O)(=O)C=2C=NC=3C=CSC3C2)C=CC1O]
inhibition at 10 µM (EP4R [1]): -10.4%

O=C(NC1CCCC1C(=O)O)C(Sc1ccc(F)cc1)c1ccccc1 (stereo not shown) [Compound 28, OC(=O)C1CCCC1NC(=O)C(SC=2C=CC(F)=CC2)C=3C=CC=CC3]
inhibition at 10 µM (EP4R [1]): -10.3%

O=C(O)C(NS(=O)(=O)CCc1cccc(Cl)c1)C(O)c1ccccc1 (stereo not shown) [Compound 29, OC(C(NS(=O)(=O)CCC=1C=CC=C(Cl)C1)C(=O)O)C=2C=CC=CC2]
inhibition at 10 µM (EP4R [1]): -10.2%

Cc1cc(C(=O)N[C@@H]2CC[C@@H](C(=O)O)CCC2(F)F)c(C)n1-c1ccccc1F [Compound 113, CC1=CC(C(=O)N[C@@H]2CC[C@H](CCC2(F)F)C(=O)O)=C(C)N1C=3C=CC=CC3F]
IC50 (EP4R [2]; PRESTO-Tango -logIC50): 11000 nM | IC50 (EP4R [2]; PRESTO-Tango IC50 (nM)): > 10000 nM

O=C(NC1CCCC(C(=O)O)CC1)c1nn(-c2ccc(F)cc2)c2c1CCC2 (stereo not shown) [Compound 116, OC(=O)C1CCCC(CC1)NC(=O)C2=NN(C=3CCCC23)C=4C=CC(F)=CC4]
IC50 (EP4R [2]; [3]): 17400 nM | IC50 (EP4R [2]; [4]): > 10000 nM

COc1cccc(-n2c(C)cc(C(=O)NC3CCCC(C(=O)O)CC3)c2C)c1 (stereo not shown) [Compound 117, COC=1C=CC=C(C1)N2C(C)=CC(C(=O)NC3CCCC(CC3)C(=O)O)=C2C]
IC50 (EP4R [2]; [3]): 22900 nM | IC50 (EP4R [2]; [4]): > 10000 nM

O=C(N[C@@H]1CC[C@@H](C(=O)O)CCC1(F)F)c1nn(-c2ccccc2F)c2c1CCC2 [Compound 118, OC(=O)[C@@H]1CC[C@@H](NC(=O)C2=NN(C=3CCCC23)C=4C=CC=CC4F)C(F)(F)CC1]
IC50 (EP4R [2]; [4]): 3790 nM | Ki (EP4R [2]): 757 nM

Cc1cc(C(=O)NC2CCCC(C(=O)O)CC2)c(C)n1-c1ccc(F)cc1 (stereo not shown) [Compound 119, CC1=CC(C(=O)NC2CCCC(CC2)C(=O)O)=C(C)N1C=3C=CC(F)=CC3]
IC50 (EP4R [2]; [3]): 25900 nM | IC50 (EP4R [2]; [4]): > 10000 nM

O=C(N[C@@H]1CC[C@@H](C(=O)O)CCC1(F)F)c1nn(-c2cccc(F)c2)c2c1CCC2 [Compound 121, OC(=O)[C@@H]1CC[C@@H](NC(=O)C2=NN(C=3CCCC23)C=4C=CC=C(F)C4)C(F)(F)CC1]
IC50 (EP4R [2]; [3]): 1000 nM | IC50 (EP4R [2]; [4]): 1010 nM | Ki (EP4R [2]; [5]): 202 nM

Cc1cc(C(=O)NC2CCCC(C(=O)O)CC2)c(C)n1-c1ccc(C(C)C)cc1 (stereo not shown) [Compound 122, CC(C)C=1C=CC(=CC1)N2C(C)=CC(C(=O)NC3CCCC(CC3)C(=O)O)=C2C]
IC50 (EP4R [2]; [4]): 1150 nM | Ki (EP4R [2]; [5]): 229 nM

O=C(NC1CCCC(C(=O)O)CC1)c1nn(-c2cccc(F)c2)c2c1CCC2 (stereo not shown) [Compound 123, OC(=O)C1CCCC(CC1)NC(=O)C2=NN(C=3CCCC23)C=4C=CC=C(F)C4]
IC50 (EP4R [2]; PRESTO-Tango IC50 (nM)): 1470 nM | Ki (EP4R [2]; [5]): 293 nM

COc1ccc(-n2c(C)cc(C(=O)NC3CCCC(C(=O)O)CC3)c2C)cc1 (stereo not shown) [Compound 124, COC=1C=CC(=CC1)N2C(C)=CC(C(=O)NC3CCCC(CC3)C(=O)O)=C2C]
IC50 (EP4R [2]; [3]): 53700 nM | IC50 (EP4R [2]; [4]): > 10000 nM

O=C(N[C@@H]1CC[C@@H](C(=O)O)CCC1(F)F)c1nn(-c2ccccc2)c2c1CCC2 [Compound 125, OC(=O)[C@@H]1CC[C@@H](NC(=O)C2=NN(C=3CCCC23)C=4C=CC=CC4)C(F)(F)CC1]
IC50 (EP4R [2]; [4]): 1640 nM | Ki (EP4R [2]; [5]): 328 nM

Cc1cc(C(=O)NC2CCCC(C(=O)O)CC2)c(C)n1-c1cccc(F)c1 (stereo not shown) [Compound 126, CC1=CC(C(=O)NC2CCCC(CC2)C(=O)O)=C(C)N1C=3C=CC=C(F)C3]
PRESTO-Tango -logIC50 (EP4R [2]): unstable | IC50 (EP4R [2]; PRESTO-Tango IC50 (nM)): > 10000 nM

O=C(N[C@@H]1CC[C@@H](C(=O)O)CCC1(F)F)c1nn(-c2ccc(F)cc2)c2c1CCC2 [Compound 127, OC(=O)[C@@H]1CC[C@@H](NC(=O)C2=NN(C=3CCCC23)C=4C=CC(F)=CC4)C(F)(F)CC1]
IC50 (EP4R [2]; [4]): 2170 nM | Ki (EP4R [2]; [5]): 434 nM

Cc1cc(C(=O)N[C@@H]2CC[C@@H](C(=O)O)CCC2(F)F)c(C)n1-c1cccc(F)c1 [Compound 128, CC1=CC(C(=O)N[C@@H]2CC[C@H](CCC2(F)F)C(=O)O)=C(C)N1C=3C=CC=C(F)C3]
IC50 (EP4R [2]; [3]): 18200 nM | IC50 (EP4R [2]; [4]): > 10000 nM

Cc1cc(C(=O)NC2CCCC(C(=O)O)CC2)c(C)n1-c1ccccc1F (stereo not shown) [Compound 129, CC1=CC(C(=O)NC2CCCC(CC2)C(=O)O)=C(C)N1C=3C=CC=CC3F]
IC50 (EP4R [2]; [3]): 479000 nM | IC50 (EP4R [2]; [4]): > 10000 nM

CN(C(=O)c1nn(-c2ccccc2)c2c1CCC2)C1CCCC(C(=O)O)CC1 (stereo not shown) [Compound 131, CN(C1CCCC(CC1)C(=O)O)C(=O)C2=NN(C=3CCCC23)C=4C=CC=CC4]
IC50 (EP4R [2]; [4]): 1880 nM | Ki (EP4R [2]): 376 nM

Cc1cc(C(=O)N(C)C2CCCC(C(=O)O)CC2)c(C)n1-c1ccccc1 (stereo not shown) [Compound 132, CN(C1CCCC(CC1)C(=O)O)C(=O)C=2C=C(C)N(C2C)C=3C=CC=CC3]
IC50 (EP4R [2]; [3]): 23400 nM | IC50 (EP4R [2]; [4]): > 10000 nM

O=C(O)C1CCC2(CC1)CC(Nc1ncnc3[nH]c4ncccc4c13)C2 (stereo not shown) [Compound 133, OC(=O)C1CCC2(CC(C2)NC=3N=CN=C4NC=5N=CC=CC5C34)CC1]
IC50 (EP4R [2]; [4]): 1090 nM | Ki (EP4R [2]; [5]): 218 nM
